Measured values from patent publication US20190046552A1, “COMPOSITIONS AND METHODS FOR THE TREATMENT OF HCV INFECTION” (priority 2015, published 2019).
Like-named read-outs stand apart in the source and are kept apart here.

Tested on: HCV from sera of patients infected with resistant strains
Assay: Capture fusion assay: THP-1 cells infected with patient serum, fused with Huh7.5, HCV RNA by PCR
Type: cell-based
Settings: for IC50: Hepatitis C virus
Experimental: Serum samples were taken from 30 patients who had either responded to or previously failed treatment with combination peg-interferon/ribavirin and a direct acting antiviral (DAA), e.g., sofosbuvir and ledipasvir, or DAA treatment alone (FIG. 16). The anti-HCV activity of Formula (IIa) was assessed using the capture fusion assay. Briefly, pre-stimulated THP-1 cells were infected with serum from donors chronically infected with the common HCV genotypes G1 or G3, or from patients infected with the less prevalent G2, G4 or G6 HCV. The hybrid cells were treated once with a range of concentrations of Formula (IIa). For comparison, fused cells infected with G1 and G3 sera were treated with telaprevir or alisporivir. The cells were cultured for 5 days, before quantification of HCV RNA by PCR. Dose-response curves were used to calculate IC50 values for each experiment. The detailed assay protocol is outlined below.
Huh7.5 and Huh7 cells were maintained in Dulbecco's modified Eagle medium with glutamine supplemented with 10% fetal calf serum and 1% penicillin/streptomycin (DMEM/10% FCS/PS). THP-1 cells were maintained in RPMI with glutamine supplemented with 10% fetal calf serum and 1% penicillin/streptomycin (RPMI/10% FCS/PS). Peripheral blood mononuclear cells (PBMC) and sera were obtained from patients with chronic HCV infection, with informed consent. Cytokines used were phorbol 12-myristate 13-acetate (PMA, Sigma-Aldrich, Dorset, UK), IFNγ (Invitrogen, Paisley, UK) and osteopontin (R&D Systems, Abingdon, UK). Primary antibodies used were anti-albumin (Dako, Glostrup, Denmark), anti-CD81 (BD Biosciences, Oxford, UK), anti-SR-B1 (Novus Biologicals, Cambridge, UK), anti-CD32 and anti-CD64 (Abcam, Cambridge, UK). Mouse IgG1 isotype control was purchased from Biolegend UK (London, UK). Fluorescent secondary antibodies AlexaFluor488 and 594 anti-sheep, anti-mouse and anti-rabbit IgG were purchased from Invitrogen.
PBMCs were separated from whole blood by centrifugation on Ficoll-Paque. The PBMC layer was washed twice before positive selection of CD14+ cells by magnetic separation. Huh7.5 cells were trypsinized and combined with CD14+ cells at a 1:1 ratio. After removal of all supernatant, the cell pellet was slowly resuspended in prewarmed polyethylene glycol 1500 (Roche Diagnostics, Burgess Hill, UK). After incubation at 37° C. for 2 minutes, prewarmed medium (DMEM/10% FCS/PS) was added dropwise and the cells washed by centrifugation. The fused cells were seeded into 6 well plates at a density of 5×10^5 cells/mL and maintained at 37° C. until RNA extraction.
THP-1 cells were seeded into 6 well plates at a density of 10^6 cells/mL and maintained in RPMI supplemented with 10% fetal calf serum and 1% penicillin/streptomycin (RPMI/10% FCS/1% PS) for 18 hours, with or without the addition of cytokines. The cells were washed three times and the medium replaced with RPMI/2% FCS and patient serum at a ratio of 1 HCV copy per cell. For antibody blocking experiments, cells were incubated with blocking antibody at 37° C. for one hour before addition of patient serum. After incubation at 37° C. for 18-24 hours, the supernatant was removed and cells were washed three times. Adherent cells were removed using a cell scraper and Huh7.5 cells added at a 1:1 ratio. Cell fusion was performed as described above. The fused cells were seeded into 6 well plates at a density of 10^5 cells/mL and maintained at 37° C. in the presence or absence of antiviral drugs for up to 7 days. In selected experiments, supernatants were pooled from non-drug treated wells and concentrated on a sucrose gradient. In brief, the pooled supernatants were filtered through a 0.45 μm filter then 10 mL of each was layered on 4 mL 20% sucrose. The supernatants were centrifuged at 24,000×g for 2 hours and the resulting pellet resuspended in 1 mL RPMI. […]

CO[C@H]1C(OP(=O)(OC[C@H]2O[C@@H](n3cnc4c(N)ncnc43)CC2O)SCOC(=O)OC(C)C)[C@@H](CO)O[C@H]1n1ccc(=O)[nH]c1=O (stereo partly shown) [Formula (IIa)]
IC50 (five selected patient samples with NS5A mutations (Example 4, FIGS. 18A-18E), read-out: IC50 range): ≥ 1 nM
IC50 (genotype 3, genotype 3, treatment experienced group, mean±sem): 22 nM
IC50 (genotype 3, genotype 3, treatment naive group, mean±sem, read-out: IC50): 26 ± 7 nM
IC50 (patient sample post-peg/RBV treatment, read-out: IC50): 455 nM
IC50 (patient sample pre-peg/RBV treatment, read-out: IC50): 450 nM
IC50 (sample from patient 7 prior to administration of telaprevir, FIG. 14A, read-out: IC50): 450 nM
IC50 (sample from patient 22, repeated relapse after combination interferon and ribavirin therapy (IFN resistant), FIG. 12A, read-out: IC50): 24 nM
IC50 (sample from patient 23, relapse of HCV infection (IFN resistant), FIG. 12B, read-out: IC50): 5.46 nM
IC50 (sample from patient 25 after treatment with telaprevir, FIG. 14B, read-out: IC50): 6.4 nM
IC50 (serum sample from patient 30, sofosbuvir resistant strain, FIG. 13C, read-out: IC50): 4 nM
IC50 (serum samples from 30 patients (Example 3), read-out: IC50 range for all patient samples): 1 to 455 nM
genotype coverage of anti-HCV activity (patient sera of HCV genotypes G1, G3, G2, G4 or G6): pan-genotypic activity
sensitivity of sample to treatment (post-treatment sample of patient who relapsed after sofosbuvir-containing therapy, FIG. 24C): sensitive
